In US6699877B2 (Gruenenthal GmbH, priority 2000, dated 2004):

Experiments:
[1] = test system: formalin-induced nociception; assay: Formalin test, rat (second/late phase); format: in vivo; conditions: 21.5 mg/kg, late phase
Protocol: Experiments to determine the antinociceptive activity of the compounds according to the invention of Formula I were carried out in the formalin test on male rats (Sprague-Dawley, 150-170 g).
In the formalin test, the first (early) phase (0-15 min after formalin injection) was distinguished from the second (late) phase (15-60 min after formalin injection) (D. Dubuisson, S. G. Dennis, Pain 4, 161-174 (1977)). The early phase, as a direct reaction to the formalin injection, represents a model for acute pain while the late phase is considered as a model for persistent (chronic) pain (T. J. Coderre, J. Katz, A. L. Vaccarino, R. Melzack, Pain, Vol. 52, p. 259,1993).
The compounds according to the invention were investigated in the second phase of the formalin test to obtain information about the effects of substances in chronic/inflammatory pain.
A nociceptive reaction was induced in freely moving experimental animals by a single subcutaneous formalin injection (50 μl, 5%) into the dorsal side of the back right paw, the nociceptive reaction being portrayed by the following behavioral parameters: lifting and holding the respective paw (Score 1), shaking and twitching (Score 2), licking and biting (Score 3). The different behavioral patterns triggered by the formalin injection were recorded continuously by observing the animals in the late phase of the formalin test and were weighted differently in an evaluation. Normal behavior in which the animal loads all four paws uniformly was recorded as score 0. The moment of administration prior to the formalin injection was selected according to the method of administration of the compounds according to the invention (intraperitoneal: 15 min, intravenous: 5 min). The described behavioral patterns (Score 1 to 3) in the animals are reduced and possibly even eliminated after injection of substances which have an antinociceptive effect in the formalin test. A comparisom was made with control animals which had received vehicles (solvents) prior to formalin administration. The nociceptive behavior was calculated as a so-called pain rate (PR). The various behavioral parameters received a different weighting (Factor 0, 1, 2, 3). Calculation took place at partial intervals of 3 min according to the following formula:
Substance and vehicle groups include n=10 animals in each case. The effect of the substance was determined as a percentage change versus control on the basis of the PR calculations. The ED50 calculations were made by regression analysis.

[2] = molecular target: T1, glycine binding site of the NMDA receptor channel (Rattus norvegicus, UniProt P35439); assay: Receptor binding, displacement of (3H)-MDL 105.519 on rat cerebral membrane homogenates; conditions: 10 μmol/l test substance, 1 nmol/l (3H)-MDL 105.519; for inhibition at 10 µM: read-out: Displacement (%, 10 μmol/l) of radioactive ligand from specific binding
T1 construct: from tissue; host or cells: rat brain cortex and hippocampus membrane homogenate
Protocol: Receptor Binding (Glycine Binding Site of the NMDA Receptor Channel)
Experiments to determine the affinity of the compounds according to the invention of Formula I to the glycine binding site of the NMDA receptor channel were carried out on cerebral membrane homogenates (homogenate of Cortex- and Hippocampus-Areal from the brain of male rats, Wistar strain) (B. M. Baron, B. W. Siegel, B. L. Harrison, R. S. Gross, C. and P. Towers, Journal of Pharmacology and Experimental Therapeutics, Vol. 279, p. 62, 1996).
For this purpose, Cortex and Hippocampus from freshly removed rats' brains were dissected, homogenized in 5 mmol/l TRIS-acetate buffer, 0.32 mol/l sacharose pH 7.4 (10 ml/g fresh weight) with a Potter homogenizer (made by Braun/Melsungen, 10 piston strokes at 500 rpm) while cooling with ice and subsequently centrifuged for 10 minutes at 1,000 g and 4° C. The first supernatant material was collected and the sediment homogenized again with […] TRIS-acetate buffer, 0.32 mol/l safcharose pH 7.4 (5 ml/g original fresh weight) using the Potter homogenizer (10 piston strokes at 500 rpm) while cooling with ice and centrifuged for 10 minutes at 1,000 g and 4° C. The resultant supernatant material was combined with the supernatant material from the first centrifugation and centrifuged at 17,000 g for 20 minutes at 4° C. The supernatant material after this centrifugation was discarded, the membrane sediment taken up with 5 mmol/l TRIS-acetate buffer pH 8.0 (20 ml/g original fresh weight) and homogenized with 10 piston strokes at 500 rpm.
The membrane homogenate was then incubated for 1 hour at 4° C. and centrifuged for 30 minutes at 50,000 g and 4° C. The supernatant material was discarded and the centrifuge tube with the membrane sediment sealed with parafilm and frozen for 24 hours at −20° C. The membrane sediment was thawed on the following day, taken up with ice-cold 5 mmol/l TRIS-acetate buffer, 0.1% saponin (w/v) pH 7.0 (10 ml/g original fresh weight), homogenized with 10 piston strokes at 500 rpm and subsequently centrifuged for 20 minutes at 50,00 g and 4° C. The resultant supernatant material was discarded, the sediment taken up in a small volume with 5 mmol/l TRIS-acetate buffer pH 7.0 (about 2 ml/g original fresh weight) and homogenized again with 10 piston strokes at 500 rpm. After determining the protein content, the membrane homogenate was adjusted to a protein concentration of 10 mg protein/ml using 5 mmol/l TRIS-acetate buffer pH 7.0 and frozen in aliquots for testing.
For the receptor binding test, aliquots were thawed, diluted 1:10 with 5 mmol/l TRIS-acetate buffer pH 7.0, homogenized with 10 piston strokes at 500 rpm using the potter homogenizer (10 piston strokes at 500 rpm) while cooling with ice and centrifuged for 60 minutes at 55,000 g at 4° C. The supernatant material was decanted, the membrane sediment adjusted to a protein concentration of 1 mg/ml with ice-cold 50 mmol/l TRIS-acetate buffer pH 7.0, homogenized again with 10 piston strokes at 500 rpm and kept in suspension in the ice bath while stirring on a magnetic stirrer. 100 μl of this membrane homogenate per 1 ml of feedstock was used in each case in the receptor binding test (0.1 mg protein/ml in the final batch).
In the binding test, 50 mmol/l TRIS-acetate buffer pH 7.0 was used as buffer and 1 nmol/l (^3H)-MDL 105.519 (B. M. Baron et al 1996) was used as radioactive ligand. The proportion of unspecific binding was determined in the presence of 1 mmol/l glycine.
In further batches, the compounds according to the invention were added in concentration series and the displacement of the radioactive ligand from its specific binding to the glycine binding site of the NMDA receptor channel determined. The respective triple batches were incubated for 120 minutes at 4° C. and then harvested to determine the radioactive ligands bound to the membrane homogenate by filtration through glass fiber filter mats (GF/B). […]

| SMILES | inhibition at 10 µM [2] | further results |
| --- | --- | --- |
| CCOC(=O)C1Nc2cc(Cl)cc(Cl)c2C2C=CCC12 (centres unmarked) [Example 1, 7,9-dichloro-3a,4,5,9b-tetrahydro-3H-cyclopenta[c]quinoline-4-carboxylic Acid Ethyl Ester] | – | % inhibition of formalin-induced nociception ([1]; i.p.): 88.3% |
| O=C(O)C1Nc2ccc(Cl)cc2C2C=CCC12 (centres unmarked) [Example 4, 8-chloro-3a-4,5,9b-tetrahydro-3H-cyclo-penta[c]quinoline-4-carboxylic Acid] | – | % inhibition of formalin-induced nociception ([1]; i.v.): 67.1% |
| CCOC(=O)C1CC(c2ccccc2F)c2c(Cl)cc(Cl)cc2N1 (centres unmarked) [Example 26, 5,7-dichloro-4-(2-fluorophenyl)-1,2,3,4-tetrahydroquinoline-2-carboxylic Acid Ethyl Ester] | 43% | % inhibition of formalin-induced nociception ([1]; i.p.): 82.6% |
| CCOC(=O)C1CC(c2ccccc2Cl)c2c(Cl)cc(Cl)cc2N1 (centres unmarked) [Example 33, 5,7-dichloro-4-(2-chlorophenyl)-1,2,3,4-tetrahydroquinoline-2-carboxylic Acid Ethyl Ester] | 40% | % inhibition of formalin-induced nociception ([1]; i.p.): 69.0% |
| CCOC(=O)C1CC(c2cccc(Cl)c2)c2c(Cl)cc(Cl)cc2N1 (centres unmarked) [Example 34, 5,7-dichloro-4-(3-chlorophenyl)-1,2,3,4-tetrahydroquinoline-2-carboxylic Acid Ethyl Ester] | 32% | % inhibition of formalin-induced nociception ([1]; i.p.): 53.1% |
| CCOC(=O)C1CC(c2ccc(Cl)cc2)c2c(Cl)cc(Cl)cc2N1 (centres unmarked) [Example 35, 5,7-dichloro-4-(4-chlorophenyl)-1,2,3,4-tetrahydroquinoline-2-carboxylic Acid Ethyl Ester] | 32% | % inhibition of formalin-induced nociception ([1]; i.p.): 21.9% |
| O=C(O)C1CC(c2ccc(Cl)cc2)c2cc(Cl)c(C(F)(F)F)cc2N1 (centres unmarked) [Example 87, 6-chloro-4-(4-chlorophenyl)-7-trifluoromethyl-1,2,3,4-tetrahydroquinoline-2-carboxylic acid] | 37% | – |
| CCOC(=O)C1Nc2ccc(C#N)cc2C2c3ccccc3CC12 (centres unmarked) [Example 88, 2-cyano-5,6a,7,11b-tetrahydro-6H-indeno[2,1-c]quinoline-6-carboxylic acid ethyl ester] | 34% | – |
| N#Cc1ccc2c(c1)C(c1ccccc1Cl)CC(C(=O)O)N2 (centres unmarked) [Example 89, 4-(2-chlorophenyl)-6-cyano-1,2,3,4-tetrahydroquinoline-2-carboxylic acid] | 30% | – |
| CCOC(=O)C1Nc2c(Cl)cc(Br)cc2C(c2ccccc2)C1C (centres unmarked) [Example 90, 6-bromo-8-chloro-3-methyl-4-phenyl-1,2,3,4-tetrahydroquinoline-2-carboxylic acid ethyl ester] | 46% | – |
| Cc1ccc(C2CC(C(=O)O)Nc3c(Cl)cc(Br)cc32)c(C)c1 (centres unmarked) [Example 91, 6-bromo-8-chloro-4-(2,4-dimethylphenyl)-1,2,3,4-tetrahydroquinoline-2-carboxylic acid] | 46% | – |
| O=C(O)C1CC(c2ccccc2Br)c2cc(Br)cc(Cl)c2N1 (centres unmarked) [Example 92, 6-bromo-4-(2-bromophenyl)-8-chloro-1,2,3,4-tetrahydroquinoline-2-carboxylic acid] | 62% | – |
| COc1cc(C2c3cc(SC)ccc3NC(C(=O)O)C2C)ccc1O (centres unmarked) [Example 93, 4-(4-hydroxy-3-methoxyphenyl)-3-methyl-6-methylsulphanyl-1,2,3,4-tetrahydroquinoline-2-carboxylic acid] | 44% | – |
| COc1ccc(C2c3cc(C#N)ccc3NC(C(=O)O)C2c2ccc(OC)cc2)cc1 (centres unmarked) [Example 94, 6-cyano-3,4-bis-(4-methoxyphenyl)-1,2,3,4-tetrahydroquinoline-2-carboxylic acid] | 55% | – |
| CCOC(=O)C1Nc2c(Cl)cc(F)cc2C(c2ccc(OC)cc2)C1c1ccc(OC)cc1 (centres unmarked) [Example 95, 8-chloro-6-fluoro-3,4-bis-(4-methoxyphenyl)-1,2,3,4-tetrahydroquinoline-2-carboxylic acid ethyl ester] | 33% | – |
| CCOC(=O)C1CC(c2ccc(OCc3ccccc3)c(OC)c2)c2cc(C(C)(C)C)ccc2N1 (centres unmarked) [Example 96, 4-(4-benzyloxy-3-methoxyphenyl)-6-tert-butyl-1,2,3,4-tetrahydroquinoline-2-carboxylic acid ethyl ester] | 29% | – |
| O=C(O)C1CC(c2ccc(Cl)cc2)c2c(Cl)cc(Cl)cc2N1 (centres unmarked) [Example 97, 5,7-dichloro-4-(4-chlorophenyl)-1,2,3,4-tetrahydroquinoline-2-carboxylic acid] | 39% | – |
| O=C(O)C1CC(c2cccc(Cl)c2)c2c(Cl)cc(Cl)cc2N1 (centres unmarked) [Example 98, 5,7-dichloro-4-(3-chlorophenyl)-1,2,3,4-tetrahydroquinoline-2-carboxylic acid] | 51% | – |
| O=C(O)C1CC(c2ccc(Cl)cc2)c2c(Cl)cc(Cl)cc2N1 (centres unmarked) [Example 99, 5,7-dichloro-4-(4-chlorophenyl)-1,2,3,4-tetrahydroquinoline-2-carboxylic acid] | – | Displacement (%, 10 μmol/l) of radioactive ligand from specific binding [2]: 43% |
| O=C(O)C1Nc2cc(Cl)cc(Cl)c2C2c3ccccc3CCC12 (centres unmarked) [Example 100, 1,3-dichloro-5,6,6a,7,8,12b-hexahydrobenzo[k]phenanthridine-6-carboxylic acid] | 80% | – |
| O=C(O)C1Nc2cc(Cl)cc(Cl)c2C2c3ccccc3CC12 (centres unmarked) [Example 101, 1,3-dichloro-5,6a,7,11b-tetrahydro-6H-indeno[2,1-c]quinoline-6-carboxylic acid] | 98% | – |
| Cc1cc(C)cc(C2CC(C(=O)O)Nc3cc(Cl)cc(Cl)c32)c1 (centres unmarked) [Example 102, 5,7-dichloro-4-(3,5-dimethyl-phenyl)-1,2,3,4-tetrahydroquinoline-2-carboxylic acid] | 61% | – |
